Source: PubChem BioAssay (NCI)
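Dose response: 5 concentrations. Exposure: 48 h. Format: 96-well plates. Endpoint: linear interpolation; highest concentration if not reached. TGI is the concentration that stops growth completely.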

How the values were obtained:
Assay in all cases: growth of human tumour cells (NCI), 48 h
U251 CNS = test system: U251 CNS
RPMI-8226 leukemia = test system: RPMI-8226 leukemia
RXF 393 renal = test system: RXF 393 renal
K-562 leukemia = test system: K-562 leukemia
SF-268 CNS = test system: SF-268 CNS
ACHN renal = test system: ACHN renal
UACC-62 melanoma = test system: UACC-62 melanoma
MDA-N = test system: MDA-N
T-47D breast = test system: T-47D breast
SK-MEL-5 melanoma = test system: SK-MEL-5 melanoma
DU-145 prostate = test system: DU-145 prostate
A549 NSCLC = test system: A549 NSCLC
MDA-MB-231 breast = test system: MDA-MB-231 breast
SNB-19 CNS = test system: SNB-19 CNS
COLO 205 colon = test system: COLO 205 colon
A498 renal = test system: A498 renal
NCI/ADR-RES ovarian = test system: NCI/ADR-RES ovarian
HT29 colon = test system: HT29 colon
SNB-75 CNS = test system: SNB-75 CNS
SK-OV-3 ovarian = test system: SK-OV-3 ovarian
TK-10 renal = test system: TK-10 renal
NCI-H460 lung = test system: NCI-H460 lung
HCT-116 colon = test system: HCT-116 colon
HS 578T breast = test system: HS 578T breast
UO-31 renal = test system: UO-31 renal
MOLT-4 leukemia = test system: MOLT-4 leukemia
HOP-62 NSCLC = test system: HOP-62 NSCLC
NCI-H23 lung = test system: NCI-H23 lung
CCRF-CEM leukemia = test system: CCRF-CEM leukemia
MCF7 breast = test system: MCF7 breast
SF-295 CNS = test system: SF-295 CNS
SW-620 colon = test system: SW-620 colon
MALME-3M melanoma = test system: MALME-3M melanoma
BT-549 breast = test system: BT-549 breast
OVCAR-3 ovarian = test system: OVCAR-3 ovarian
EKVX NSCLC = test system: EKVX NSCLC
OVCAR-5 ovarian = test system: OVCAR-5 ovarian
PC-3 prostate = test system: PC-3 prostate
NCI-H226 lung = test system: NCI-H226 lung
OVCAR-4 ovarian = test system: OVCAR-4 ovarian
IGROV1 ovarian = test system: IGROV1 ovarian
UACC-257 melanoma = test system: UACC-257 melanoma
NCI-H522 lung = test system: NCI-H522 lung
KM12 colon = test system: KM12 colon
SK-MEL-2 melanoma = test system: SK-MEL-2 melanoma
786-0 renal = test system: 786-0 renal
SK-MEL-28 melanoma = test system: SK-MEL-28 melanoma
MDA-MB-435 = test system: MDA-MB-435
HCT-15 colon = test system: HCT-15 colon
CAKI-1 renal = test system: CAKI-1 renal
OVCAR-8 ovarian = test system: OVCAR-8 ovarian
M14 melanoma = test system: M14 melanoma
LOX IMVI melanoma = test system: LOX IMVI melanoma
SF-539 CNS = test system: SF-539 CNS
SN12C renal = test system: SN12C renal
SR leukemia = test system: SR leukemia
HL-60(TB) leukemia = test system: HL-60(TB) leukemia

**Q.** Which TGI (U251 CNS) does the source give for Cc1nnc2sc(NN)nn12 here?
**A.** > 100 µM

**Q.** And the TGI (RPMI-8226 leukemia)?
**A.** > 100 µM

**Q.** And the TGI (RXF 393 renal)?
**A.** > 100 µM

**Q.** And the TGI (K-562 leukemia)?
**A.** > 100 µM

**Q.** What about the TGI (SF-268 CNS) of the same compound?
**A.** > 100 µM

**Q.** What about the TGI (ACHN renal) of the same compound?
**A.** > 100 µM

**Q.** What about the TGI (UACC-62 melanoma) of the same compound?
**A.** > 100 µM

**Q.** What about the TGI (MDA-N) of the same compound?
**A.** > 100 µM

**Q.** What about the TGI (T-47D breast) of the same compound?
**A.** > 100 µM

**Q.** And the TGI (SK-MEL-5 melanoma)?
**A.** > 100 µM

**Q.** What about the TGI (DU-145 prostate) of the same compound?
**A.** > 100 µM

**Q.** What about the TGI (A549 NSCLC) of the same compound?
**A.** > 100 µM

**Q.** And the TGI (MDA-MB-231 breast)?
**A.** > 100 µM

**Q.** And the TGI (SNB-19 CNS)?
**A.** > 100 µM

**Q.** What about the TGI (COLO 205 colon) of the same compound?
**A.** > 100 µM

**Q.** What about the TGI (A498 renal) of the same compound?
**A.** > 100 µM

**Q.** And the TGI (NCI/ADR-RES ovarian)?
**A.** > 100 µM

**Q.** What about the TGI (HT29 colon) of the same compound?
**A.** > 100 µM

**Q.** And the TGI (SNB-75 CNS)?
**A.** > 100 µM

**Q.** And the TGI (SK-OV-3 ovarian)?
**A.** > 100 µM

**Q.** And the TGI (TK-10 renal)?
**A.** > 100 µM

**Q.** And the TGI (NCI-H460 lung)?
**A.** > 100 µM

**Q.** And the TGI (HCT-116 colon)?
**A.** > 100 µM

**Q.** What about the TGI (HS 578T breast) of the same compound?
**A.** > 100 µM

**Q.** And the TGI (UO-31 renal)?
**A.** > 100 µM

**Q.** What about the TGI (MOLT-4 leukemia) of the same compound?
**A.** 31.6 µM

**Q.** And the TGI (HOP-62 NSCLC)?
**A.** > 100 µM

**Q.** What about the TGI (NCI-H23 lung) of the same compound?
**A.** > 100 µM

**Q.** And the TGI (CCRF-CEM leukemia)?
**A.** > 100 µM

**Q.** What about the TGI (MCF7 breast) of the same compound?
**A.** > 100 µM

**Q.** And the TGI (SF-295 CNS)?
**A.** > 100 µM

**Q.** What about the TGI (SW-620 colon) of the same compound?
**A.** > 100 µM

**Q.** What about the TGI (MALME-3M melanoma) of the same compound?
**A.** > 100 µM

**Q.** What about the TGI (BT-549 breast) of the same compound?
**A.** > 100 µM

**Q.** What about the TGI (OVCAR-3 ovarian) of the same compound?
**A.** > 100 µM

**Q.** And the TGI (EKVX NSCLC)?
**A.** > 100 µM

**Q.** And the TGI (OVCAR-5 ovarian)?
**A.** > 100 µM

**Q.** And the TGI (PC-3 prostate)?
**A.** > 100 µM

**Q.** What about the TGI (NCI-H226 lung) of the same compound?
**A.** > 100 µM

**Q.** And the TGI (OVCAR-4 ovarian)?
**A.** > 100 µM

**Q.** What about the TGI (IGROV1 ovarian) of the same compound?
**A.** > 100 µM

**Q.** What about the TGI (UACC-257 melanoma) of the same compound?
**A.** > 100 µM

**Q.** And the TGI (NCI-H522 lung)?
**A.** > 100 µM

**Q.** What about the TGI (KM12 colon) of the same compound?
**A.** > 100 µM

**Q.** And the TGI (SK-MEL-2 melanoma)?
**A.** > 100 µM

**Q.** And the TGI (786-0 renal)?
**A.** > 100 µM

**Q.** And the TGI (SK-MEL-28 melanoma)?
**A.** > 100 µM

**Q.** What about the TGI (MDA-MB-435) of the same compound?
**A.** > 100 µM

**Q.** And the TGI (HCT-15 colon)?
**A.** > 100 µM

**Q.** What about the TGI (CAKI-1 renal) of the same compound?
**A.** > 100 µM

**Q.** What about the TGI (OVCAR-8 ovarian) of the same compound?
**A.** > 100 µM

**Q.** What about the TGI (M14 melanoma) of the same compound?
**A.** > 100 µM

**Q.** What about the TGI (LOX IMVI melanoma) of the same compound?
**A.** > 100 µM

**Q.** What about the TGI (SF-539 CNS) of the same compound?
**A.** > 100 µM

**Q.** And the TGI (SN12C renal)?
**A.** > 100 µM

**Q.** S=C1CC(c2ccccc2)Sc2ccccc2N1 (stereo unspecified) was tested. Which TGI (U251 CNS) did it give?
**A.** > 100 µM

**Q.** And the TGI (RPMI-8226 leukemia)?
**A.** > 100 µM

**Q.** And the TGI (RXF 393 renal)?
**A.** 75.8 µM

**Q.** What about the TGI (K-562 leukemia) of the same compound?
**A.** > 100 µM

**Q.** What about the TGI (SF-268 CNS) of the same compound?
**A.** > 100 µM

**Q.** What about the TGI (ACHN renal) of the same compound?
**A.** > 100 µM

**Q.** And the TGI (UACC-62 melanoma)?
**A.** > 100 µM

**Q.** And the TGI (MDA-N)?
**A.** > 100 µM

**Q.** And the TGI (T-47D breast)?
**A.** > 100 µM

**Q.** What about the TGI (SK-MEL-5 melanoma) of the same compound?
**A.** > 100 µM

**Q.** What about the TGI (DU-145 prostate) of the same compound?
**A.** > 100 µM

**Q.** What about the TGI (MDA-MB-231 breast) of the same compound?
**A.** > 100 µM

**Q.** And the TGI (SNB-19 CNS)?
**A.** > 100 µM

**Q.** And the TGI (COLO 205 colon)?
**A.** > 100 µM

**Q.** And the TGI (NCI/ADR-RES ovarian)?
**A.** > 100 µM

**Q.** What about the TGI (HT29 colon) of the same compound?
**A.** > 100 µM

**Q.** And the TGI (SNB-75 CNS)?
**A.** > 100 µM

**Q.** What about the TGI (SK-OV-3 ovarian) of the same compound?
**A.** > 100 µM

**Q.** What about the TGI (TK-10 renal) of the same compound?
**A.** > 100 µM

**Q.** And the TGI (NCI-H460 lung)?
**A.** > 100 µM

**Q.** And the TGI (HCT-116 colon)?
**A.** > 100 µM

**Q.** And the TGI (HS 578T breast)?
**A.** > 100 µM

**Q.** And the TGI (SR leukemia)?
**A.** > 100 µM

**Q.** And the TGI (UO-31 renal)?
**A.** > 100 µM

**Q.** And the TGI (MOLT-4 leukemia)?
**A.** > 100 µM

**Q.** And the TGI (HOP-62 NSCLC)?
**A.** 60.1 µM

**Q.** And the TGI (NCI-H23 lung)?
**A.** > 100 µM

**Q.** And the TGI (CCRF-CEM leukemia)?
**A.** > 100 µM

**Q.** And the TGI (MCF7 breast)?
**A.** > 100 µM

**Q.** And the TGI (SF-295 CNS)?
**A.** > 100 µM

**Q.** What about the TGI (MALME-3M melanoma) of the same compound?
**A.** > 100 µM

**Q.** What about the TGI (HL-60(TB) leukemia) of the same compound?
**A.** > 100 µM

**Q.** And the TGI (BT-549 breast)?
**A.** > 100 µM

**Q.** What about the TGI (OVCAR-3 ovarian) of the same compound?
**A.** > 100 µM

**Q.** What about the TGI (EKVX NSCLC) of the same compound?
**A.** > 100 µM

**Q.** And the TGI (OVCAR-5 ovarian)?
**A.** > 100 µM

**Q.** What about the TGI (PC-3 prostate) of the same compound?
**A.** > 100 µM

**Q.** And the TGI (NCI-H226 lung)?
**A.** > 100 µM

**Q.** What about the TGI (OVCAR-4 ovarian) of the same compound?
**A.** > 100 µM

**Q.** What about the TGI (IGROV1 ovarian) of the same compound?
**A.** > 100 µM

**Q.** What about the TGI (UACC-257 melanoma) of the same compound?
**A.** > 100 µM

**Q.** What about the TGI (NCI-H522 lung) of the same compound?
**A.** > 100 µM

**Q.** What about the TGI (KM12 colon) of the same compound?
**A.** > 100 µM

**Q.** And the TGI (SK-MEL-28 melanoma)?
**A.** > 100 µM

**Q.** What about the TGI (MDA-MB-435) of the same compound?
**A.** > 100 µM

**Q.** What about the TGI (HCT-15 colon) of the same compound?
**A.** > 100 µM

**Q.** What about the TGI (CAKI-1 renal) of the same compound?
**A.** > 100 µM

**Q.** What about the TGI (OVCAR-8 ovarian) of the same compound?
**A.** > 100 µM

**Q.** What about the TGI (M14 melanoma) of the same compound?
**A.** > 100 µM

**Q.** And the TGI (LOX IMVI melanoma)?
**A.** > 100 µM

**Q.** What about the TGI (SN12C renal) of the same compound?
**A.** > 100 µM
